pIC50: −log10 of the molar value.
How the values were obtained:
[1] = target: p38α (Homo sapiens, UniProt Q16539); experiment: Inhibitory action on p38α; format: biochemical
[2] = target: T1, human JNK1 (Homo sapiens, UniProt P45983); experiment: Measurement of JNK inhibitory activity (32P uptake into cJUN by active JNK1); format: biochemical; settings: 2.5 μM ATP, 30° C., 60 min
T1 construct: His6 (Met-Ala-His6, read from primer JNK1-U) (N); made in house; host or cells: Sf-21 insect cells (baculovirus BAC-HJNK1 co-infected with BAC-caMKK7); cJUN substrate from E. coli JM109
T1 sequence (P45983 1-384 isoform P45983-2): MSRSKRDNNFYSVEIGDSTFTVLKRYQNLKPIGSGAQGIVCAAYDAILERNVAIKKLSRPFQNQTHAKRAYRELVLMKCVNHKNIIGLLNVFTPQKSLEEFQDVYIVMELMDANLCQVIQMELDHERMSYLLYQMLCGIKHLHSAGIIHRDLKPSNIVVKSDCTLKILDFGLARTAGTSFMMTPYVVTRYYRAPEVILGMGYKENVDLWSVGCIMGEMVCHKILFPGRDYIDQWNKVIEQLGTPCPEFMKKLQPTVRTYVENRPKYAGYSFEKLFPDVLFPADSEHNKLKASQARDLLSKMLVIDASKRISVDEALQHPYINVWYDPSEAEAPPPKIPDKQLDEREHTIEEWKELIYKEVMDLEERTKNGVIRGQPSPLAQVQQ
Description: (4) Preparation of Active JNK1
Sf-21 cells were seeded to achieve 1×10^6 cells/ml in 100 ml of Sf-900 II SFM medium (GIBCO BRL) containing 10% fetal calf serum and cultured at 27° C. for 24 hrs. The recombinant baculovirus virus stock BAC-HJNK1 and BAC-caMKK7 were added by 0.2 ml each, and the cells were further cultured for 60 hrs. The cells were separated from the culture solution by centrifugation (3000 rpm, 10 min.) and washed twice with PBS. The cells were suspended in 10 ml of Lysis buffer (25 mM HEPES (pH 7.5), 1% Triton X, 130 mM NaCl, 1 mM EDTA, 1 mM DTT, 25 mM β-glycerophosphate, 20 μM leupeptin, 1 mM APMSF, 1 mM sodium orthovanadate) and ruptured by 4 times of treatment with a homogenizer (POLYTRON) at 20000 rpm, 30 seconds each. Active JNK1 was purified from a supernatant obtained by centrifugal separation (40000 rpm, 45 min.) by the use of Anti-FLAG M2 Affinity Gel (Sigma).
(5) Preparation of Recombinant cJUN
Escherichia coli JM109 (Toyobo Co., Ltd.) was transformed with a plasmid pGEJUN to give ampicillin resistant pGEJUN/JM109. The pGEJUN/JM109 strain was cultured overnight in 150 ml of LB medium (10 g/l tripton, 5 g/l yeast extract, 10 g/l sodium chloride) containing 50 μg/ml ampicillin at 200 rpm, 37° C. The culture solution (15 ml) was added to a fresh LB medium (150 ml) and cultured at 37° C. for 2 hrs. at 200 rpm. 1 mM IPTG (Wako Pure Chemical Industries, Ltd.) was added and the cells were further cultured for 6 hrs. The culture solution was centrifuged at 8000 rpm for 10 min. and bacterial cells were recovered, washed with PBS and frozen at −80° C. The cells were suspended in 20 ml of lysis buffer (B-PER bacterial protein extraction reagent (Pierce), Protease inhibitor Complete (Boehringer)) and shaken at room temperature for 10 min. After centrifugal separation (14000 rpm, 15 min., 4° C.), and GST-cJUN fused protein was purified from the supernatant using Redipack GST Purification Module (Amersham-Pharmacia Biotech).
(6) Measurement of JNK Inhibitory Activity
A reaction solution (37.5 μl, 25 mM HEPES (pH 7.5), 10 mM magnesium acetate, 1 mM DTT) containing 50 ng of active JNK1 and 1 μg of cJUN […]. The test compound (2.5 μl) was added and the mixture was incubated at 30° C. for 5 min. […] After reacting at 30° C. for 60 min., 50 μl of 20% TCA solution was added to stop the reaction. The reaction solution was left standing at 0° C. for 20 min. and an acid-insoluble fraction was transferred onto a GF/C filter (Packard Japan) using Cell Harvester (Packard Japan), and washed with 250 mM phosphoric acid. After drying at 45° C. for 60 min., 40 μl of Microscint 0 (Packard Japan) was added and the radioactivity was measured on TopCount (Packard Japan).

[3] = target: ERK1 (Homo sapiens, UniProt P27361); experiment: Inhibitory action on ERK1; format: biochemical
Chain of ERK1 (P27361 whole entry): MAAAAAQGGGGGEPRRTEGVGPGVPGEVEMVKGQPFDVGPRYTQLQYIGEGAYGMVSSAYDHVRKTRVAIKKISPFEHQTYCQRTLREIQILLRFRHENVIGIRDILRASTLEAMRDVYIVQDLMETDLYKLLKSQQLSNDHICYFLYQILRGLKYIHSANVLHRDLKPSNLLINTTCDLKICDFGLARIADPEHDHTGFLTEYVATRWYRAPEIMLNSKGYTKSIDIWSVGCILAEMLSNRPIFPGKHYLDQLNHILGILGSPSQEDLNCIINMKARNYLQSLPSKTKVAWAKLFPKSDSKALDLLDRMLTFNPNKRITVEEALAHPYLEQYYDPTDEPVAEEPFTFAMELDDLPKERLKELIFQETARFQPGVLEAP

[4] = tested on: Male wistar rats; experiment: Pressure overloaded cardiac hypertrophy induced by an abdominal aortic stenosis (rat); format: in vivo; settings: 10 mg/kg p.o. once a day, day 7 after aortic stenosis
Description: Preparation of the Model of Pressure Overloaded Cardiac Hypertrophy Induced by an Abdominal Aortic Stenosis (Rat)
Male wistar rats (body weight 260-300 g, CLEA Japan, Inc) were used. Under xylazine (10 mg/kg, i.p.) and ketamine (50 mg/kg, i.p.) anesthesia, abdominal aorta was exposed by median laparotomy. The left and right renal arteries were detached from the back, a 22G injection needle was put along the artery and it was ligated together with the aorta using a 2-0 silk thread just below the right renal artery. Then, the injection needle was removed to make a stenosis in the abdominal aorta. The abdomen was closed and the rats were housed commonly. For a sham group, the abdomen was closed without ligation (no stenosis) with a silk thread. A compound was suspended in a 0.5% methyl cellulose solution (2 ml/kg) and orally administered at a dose of 10 mg/kg 1 hr. before aortic stenosis and once a day from day 1 (the next day of stricture) to day 7 after operation. Vehicle (0.5% methyl cellulose solution) was administered instead of the compound to the sham group and control group. At day 7 after the preparation of aortic stenosis, the body weight was measured, and the heart was removed and then extracted under pentobarbital (50 mg/kg, i.p.) anesthesia. The right and left artium and right ventricle were excised from the heart and the wet weight of the left ventricle was measured. The left ventricle weight to body weight ratio of each rat was calculated and an increase from the average value of the sham group was calculated. Inhibitory rate of each group to a cardiac hypertrophy was calculated based on the control group as 100%.

Chain of p38α (Q16539 whole entry): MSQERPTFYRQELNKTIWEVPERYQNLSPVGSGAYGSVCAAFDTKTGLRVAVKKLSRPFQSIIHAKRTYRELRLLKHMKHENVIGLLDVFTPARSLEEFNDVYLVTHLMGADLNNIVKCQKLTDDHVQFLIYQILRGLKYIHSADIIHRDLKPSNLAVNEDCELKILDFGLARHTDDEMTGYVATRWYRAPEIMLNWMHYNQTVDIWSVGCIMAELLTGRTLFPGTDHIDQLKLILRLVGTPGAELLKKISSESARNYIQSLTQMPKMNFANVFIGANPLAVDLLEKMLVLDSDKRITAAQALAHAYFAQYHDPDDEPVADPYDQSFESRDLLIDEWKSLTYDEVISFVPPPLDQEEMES

| inhibition at 10 µM [1] [%] | pIC50 [2] | inhibition at 10 µM [3] [%] | SMILES | Inhibitory rate (cardiac hypertrophy, control group as 100%) [4] | Left ventricular weight/body weight ratio (mg/g) amount of increase from sham group [4] | Left ventricular weight/body weight ratio (mg/g) value [4] [mg/g] |
| --- | --- | --- | --- | --- | --- | --- |
| 0 | 8.04 | 0 | COC(=O)c1c(-c2ccccc2)c2cc(Br)ccc2c(=O)n1Cc1ccc(NC(=O)CCC(=O)O)cc1 [Example 122, 6-bromo-2-[4-(3-carboxypropionylamino)benzyl]-1-oxo-4-phenyl-1,2-dihydroisoquinoline-3-carboxylic acid methyl ester] | – | – | – |
| 2 | – | 0 | COC(=O)c1c(-c2ccccc2)c2cc(Br)ccc2c(=O)n1Cc1ccc(S(C)(=O)=O)cc1 [Example 94, 6-bromo-2-(4-methanesulfonylbenzyl)-1-oxo-4-phenyl-1,2-dihydroisoquinoline-3-carboxylic acid methyl ester] | rate 40%) | – | – |
| 0 | 7.80 | 22 | CCC(=O)c1c(-c2ccccc2)c2cc(Cl)ccc2c(=O)n1Cc1ccc(C(=O)O)cc1 [Example 463, 4-(6-chloro-1-oxo-4-phenyl-3-propionyl-1H-isoquinolin-2-ylmethyl)benzoic acid] | – | – | – |
| 0 | 7.41 | 0 | CC(=O)c1c(-c2ccccc2)c2cc(Br)ccc2c(=O)n1Cc1ccc(S(N)(=O)=O)cc1 [Example 415, 3-acetyl-6-bromo-4-phenyl-2-(4-sulfamoylbenzyl)-2H-isoquinolin-1-one] | – | – | – |
| 0 | 8.12 | 0 | CCN(CC)NC(=O)c1ccc(Cn2c(C(=O)OC)c(-c3ccccc3)c3cc(Br)ccc3c2=O)cc1 [Example 356, 6-bromo-2-[4-(N′,N′-diethylhydrazinocarbonyl)benzyl]-1-oxo-4-phenyl-1,2-dihydroisoquinoline-3-carboxylic acid methyl ester] | – | – | – |
| 0 | 7.34 | 1 | CCC(=O)c1c(-c2ccccc2)c2cc(Br)ccc2c(=O)n1Cc1ccc(S(C)(=O)=O)cc1 [Example 315, 6-bromo-2-(4-methanesulfonylbenzyl)-4-phenyl-3-propionyl-2H-isoquinolin-1-one] | rate 44%) | 0.29 ± 0.05 (Inhibitory mg/g | 2.19 ± 0.05 |
| 0 | 8.17 | 37 | CCC(=O)c1c(-c2ccccc2)c2cc(Br)ccc2c(=O)n1Cc1ccc(-c2nnn[nH]2)cc1 [Example 495, 6-bromo-4-phenyl-3-propionyl-2-[4-(1H-tetrazol-5-yl)benzyl]-2H-isoquinolin-1-one] | – | – | – |
| 10 | 7.55 | 16 | COC(=O)c1c(-c2ccccc2)c2cc(N)ccc2c(=O)n1Cc1ccc2c(c1)OCO2 [Example 156, 6-amino-2-(benzo[1,3]dioxol-5-ylmethyl)-1-oxo-4-phenyl-1,2-dihydroisoquinoline-3-carboxylic acid methyl ester] | – | – | – |
| 20 | 7.85 | 0 | COC(=O)c1c(-c2ccccc2)c2cc(Br)ccc2c(=O)n1Cc1ccc(S(N)(=O)=O)cc1 [Example 93, 6-bromo-1-oxo-4-phenyl-2-(4-sulfamoylbenzyl)-1,2-dihydroisoquinoline-3-carboxylic acid methyl ester] | – | – | – |

Continued, molecule first:

| SMILES | inhibition at 10 µM [1] [%] | pIC50 [2] | inhibition at 10 µM [3] [%] | Inhibitory rate (cardiac hypertrophy, control group as 100%) [4] | Left ventricular weight/body weight ratio (mg/g) amount of increase from sham group [4] | Left ventricular weight/body weight ratio (mg/g) value [4] [mg/g] |
| --- | --- | --- | --- | --- | --- | --- |
| COC(=O)c1c(-c2ccccc2)c2cc(Br)ccc2c(=O)n1Cc1ccc2c(c1)OCO2 [Example 24, 2-(benzo[1,3]dioxol-5-ylmethyl)-6-bromo-1-oxo-4-phenyl-1,2-dihydroisoquinoline-3-carboxylic acid methyl ester] | 18 | 7.74 | 39 | – | – | – |
| COC(=O)c1c(-c2ccccc2)c2cc(Br)ccc2c(=O)n1CC1CCN(C(C)=O)CC1 [Example 112, 2-(1-acetylpiperidin-4-ylmethyl)-6-bromo-1-oxo-4-phenyl-1,2-dihydroisoquinoline-3-carboxylic acid methyl ester] | 0 | 5.52 | 0.095 | – | – | – |
| COC(=O)c1c(-c2ccccc2)c2cc(Br)ccc2c(=O)n1Cc1ccc(C(=O)O)cc1 [Example 102, 6-bromo-2-(4-carboxybenzyl)-1-oxo-4-phenyl-1,2-dihydroisoquinoline-3-carboxylic acid methyl ester] | 0 | 7.70 | 0 | – | – | – |
| C/C(N)=C/C(=O)c1c(-c2ccccc2)c2cc(Br)ccc2c(=O)n1Cc1ccc(S(C)(=O)=O)cc1 [Example 546, 3-[(2Z)-3-aminobut-2-enoyl]-6-bromo-2-(4-methanesulfonylbenzyl)-4-phenyl-2H-isoquinolin-1-one] | 0 | 7.49 | 5 | – | – | – |
| CCCC(=O)c1c(-c2ccccc2)c2cc(Cl)ccc2c(=O)n1Cc1ccc(S(N)(=O)=O)cc1 [Example 455, 4-(6-chloro-3-butyryl-1-oxo-4-phenyl-1H-isoquinolin-2-ylmethyl)benzenesulfonamide] | 0 | 7.47 | 0 | – | – | – |
| CCC(=O)c1c(-c2ccccc2)c2cc(Br)ccc2c(=O)n1Cc1ccc(C(=O)O)cc1 [Example 462, 4-(6-bromo-1-oxo-4-phenyl-3-propionyl-1H-isoquinolin-2-ylmethyl)benzoic acid] | 0 | 8.04 | 13 | – | – | – |
| COC(=O)c1c(-c2ccccc2)c2cc(Br)ccc2c(=O)n1Cc1ccc(C(=O)NCCN2CCCC2)cc1 [Example 141, 6-bromo-1-oxo-4-phenyl-2-[4-(2-(pyrrolidin-1-yl)ethylcarbamoyl)benzyl]-1,2-dihydroisoquinoline-3-carboxylic acid methyl ester] | 10 | 7.43 | 4 | – | – | – |
